Assay results from US20250101041A1, “POSITIVE ALLOSTERIC MODULATORS OF THE MUSCARINIC ACETYLCHOLINE RECEPTOR M4” (Vanderbilt University, priority 2022, published 2025).

Target: T1, human mAChR M4 (Homo sapiens, UniProt P08173)
T1 construct: expressed in transfected cells; host or cells: CHO-K1 (American Type Culture Collection), stably expressing hM4 and Gqi5
T1 sequence (P08173 1-479): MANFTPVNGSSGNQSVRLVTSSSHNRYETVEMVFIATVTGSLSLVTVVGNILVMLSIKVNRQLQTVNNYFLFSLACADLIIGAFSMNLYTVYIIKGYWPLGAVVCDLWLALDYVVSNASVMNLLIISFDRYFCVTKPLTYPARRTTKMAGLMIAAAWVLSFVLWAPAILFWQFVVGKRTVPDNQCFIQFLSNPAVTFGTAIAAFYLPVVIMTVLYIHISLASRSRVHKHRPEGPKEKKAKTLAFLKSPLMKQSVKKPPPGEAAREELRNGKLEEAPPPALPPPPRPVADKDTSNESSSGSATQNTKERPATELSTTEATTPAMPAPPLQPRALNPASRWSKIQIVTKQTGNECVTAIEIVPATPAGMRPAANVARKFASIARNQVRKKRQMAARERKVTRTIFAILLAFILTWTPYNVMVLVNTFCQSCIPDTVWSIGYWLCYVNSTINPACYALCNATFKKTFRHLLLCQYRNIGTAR
Test: mAChR M4 cell-based functional assay: calcium mobilization (Fluo-4, FDSS), potentiation of EC20 acetylcholine response in hM4-Gqi5 CHO-K1 cells
Settings: human M4; for Emax at 30 µM: CHO-K1, % ACh maximum at 30 μM; for EC50: potentiation of EC20 acetylcholine response, calcium mobilization
In short: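 CHO-K1 cells stably co-expressing human M4 and chimeric Gqi5, loaded with Fluo-4 AM (50 min, 37 °C). Compounds in 11-point 1:3 series added first; EC20 acetylcholine added at 144 s and again at 230 s. Calcium read on FDSS at 1 Hz; EC50 and Emax from four-parameter logistic fit of potentiated EC20 response.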

SMILES	Emax at 30 µM [%]	EC50 [nM]	Emax (%)* (% ACh maximum at 30 μM) [%]
COCc1cc(=O)n2nc(N3CCc4ncc(-c5cccnc5)cc4C3)c(C)cc2n1 [Compound 1-365, 2-(methoxymethyl)-8-methyl-7-(3-(pyridin-3-yl)-7,8-dihydro-1,6-naphthyridin-6(5H)-yl)-4H-pyrimido[1,2-b] pyridazin-4-one]	69	325	
Cc1cc(=O)n2nc(N3CCc4ncc(-c5cnn(CCN(C)C)c5)cc4C3)c(C)c(C)c2n1 [Compound 1-177, 7-(3-(1-(2-(dimethylamino)ethyl)-1H-pyrazol-4-yl)-7,8-dihydro-1,6-naphthyridin-6(5H)-yl)-2,8,9-trimethyl-4H-pyrimido[1,2-b]pyridazin-4-one]	84	1420	
Cc1cc(=O)n2nc(N3CCc4ncc(-c5ccnn5C5COC5)cc4C3)c(C)c(C)c2n1 [Compound 1-176, 2,8,9-trimethyl-7-(3-(1-(oxetan-3-yl)-1H-pyrazol-5-yl)-7,8-dihydro-1,6-naphthyridin-6(5H)-yl)-4H-pyrimido[1,2-b]pyridazin-4-one]	74	4840	
Cc1cc(=O)n2nc(N3CCc4ncc(-c5cnc(F)cc5C)cc4C3)c(C)c(C)c2n1 [Compound 1-202, 7-(3-(6-fluoro-4-methylpyridin-3-yl)-7,8-dihydro-1,6-naphthyridin-6(5H)-yl)-2,8,9-trimethyl-4H-pyrimido[1,2-b]pyridazin-4-one]	91	104	
Cc1c(N2CCc3ncc(-c4cnn(C(F)F)c4)cc3C2)nn2c(=O)cc(C(F)F)nc2c1C [Compound 1-172, 2-(difluoromethyl)-7-(3-(1-(difluoromethyl)-1H-pyrazol-4-yl)-7,8-dihydro-1,6-naphthyridin-6(5H)-yl)-8,9-dimethyl-4H-pyrimido[1,2-b]pyridazin-4-one]	85	114	
COCc1cc(=O)n2nc(N3CCc4ncc(-c5ccsc5)cc4C3)c(C)cc2n1 [Compound 1-370, 2-(methoxymethyl)-8-methyl-7-(3-(thiophen-3-yl)-7,8-dihydro-1,6-naphthyridin-6(5H)-yl)-4H-pyrimido[1,2-b]pyridazin-4-one]	94	153	
COc1ccc(C2CN(c3cnc4c(c3)CN(c3nn5c(=O)ccnc5cc3C)CC4)CCO2)cc1 (stereo not shown) [Compound 2-95, 7-(3-(2-(4-methoxyphenyl)morpholino)-7,8-dihydro-1,6-naphthyridin-6(5H)-yl)-8-methyl-4H-pyrimido[1,2-b]pyridazin-4-one]	64	814	
Cc1ccc(-c2cnc3c(c2)CN(c2nn4c(=O)cc(C)nc4c(C)c2C)CC3)cn1 [Compound 1-82, 2,8,9-trimethyl-7-(3-(6-methylpyridin-3-yl)-7,8-dihydro-1,6-naphthyridin-6(5H)-yl)-4H-pyrimido[1,2-b]pyridazin-4-one]	100	145	
Cc1cc2nccc(=O)n2nc1N1CCc2ncc(NS(=O)(=O)C3CC3)cc2C1 [Compound 2-118, N-(6-(8-methyl-4-oxo-4H-pyrimido[1,2-b]pyridazin-7-yl)-5,6,7,8-tetrahydro-1,6-naphthyridin-3-yl)cyclopropanesulfonamide]	48	3050	
Cc1cc(=O)n2nc(N3CCc4ncc(N5CC6CCC(C5)O6)cc4C3)c(C)c(C)c2n1 [Compound 2-43, 7-(3-(8-oxa-3-azabicyclo[3.2.1]octan-3-yl)-7,8-dihydro-1,6-naphthyridin-6(5H)-yl)-2,8,9-trimethyl-4H-pyrimido[1,2-b]pyridazin-4-one]	76	310	
Cc1cc(=O)n2nc(N3CCc4ncc(-c5ccncc5)cc4C3)c(C)c(C)c2n1 [Compound 1-244, 2,8,9-trimethyl-7-(3-(pyridin-4-yl)-7,8-dihydro-1,6-naphthyridin-6(5H)-yl)-4H-pyrimido[1,2-b]pyridazin-4-one]	82	112	
Cc1cccnc1-c1cnc2c(c1)CN(c1nn3c(=O)ccnc3cc1C)CC2 [Compound 1-348, 8-methyl-7-(3-(3-methylpyridin-2-yl)-7,8-dihydro-1,6-naphthyridin-6(5H)-yl)-4H-pyrimido[1,2-b]pyridazin-4-one]	68	2600	
Cc1cc(=O)n2nc(N3CCc4ncc(Nc5ccnn5C)cc4C3)c(C)cc2n1 [Compound 2-20, 2,8-dimethyl-7-(3-((1-methyl-1H-pyrazol-5-yl)amino)-7,8-dihydro-1,6-naphthyridin-6(5H)-yl)-4H-pyrimido[1,2-b]pyridazin-4-one]	88	166	
Cc1cc(F)ncc1-c1cnc2c(c1)CN(c1nn3c(=O)ccnc3cc1C)CC2 [Compound 1-398, 7-(3-(6-fluoro-4-methylpyridin-3-yl)-7,8-dihydro-1,6-naphthyridin-6(5H)-yl)-8-methyl-4H-pyrimido[1,2-b]pyridazin-4-one]	93	169	
Cc1cc(=O)n2nc(N3CCc4ncc(N5CC6CC5CO6)cc4C3)c(C)c(C)c2n1 (stereo not shown) [Compound 2-37, 7-(3-(2-oxa-5-azabicyclo[2.2.1]heptan-5-yl)-7,8-dihydro-1,6-naphthyridin-6(5H)-yl)-2,8,9-trimethyl-4H-pyrimido[1,2-b]pyridazin-4-one]	81	1340	
Cc1c(N2CCc3ncc(-c4cnc(Cl)c(F)c4)cc3C2)nn2c(=O)ccnc2c1C [Compound 1-146, 7-(3-(6-chloro-5-fluoropyridin-3-yl)-7,8-dihydro-1,6-naphthyridin-6(5H)-yl)-8,9-dimethyl-4H-pyrimido[1,2-b]pyridazin-4-one]	86	399	
COCc1cc(=O)n2nc(N3CCc4ncc(-c5cnc(Cl)cc5C)cc4C3)c(C)cc2n1 [Compound 1-357, 7-(3-(6-chloro-4-methylpyridin-3-yl)-7,8-dihydro-1,6-naphthyridin-6(5H)-yl)-2-(methoxymethyl)-8-methyl-4H-pyrimido[1,2-b]pyridazin-4-one]	86	383	
Cc1c(N2CCc3ncc(C(F)(F)F)cc3C2C)nn2c(=O)ccnc2c1C (single isomer, unassigned) [Compound 1-385, 8,9-dimethyl-7-(5-methyl-3-(trifluoromethyl)-7,8-dihydro-1,6-naphthyridin-6(5H)-yl)-4H-pyrimido[1,2-b] pyridazin-4-one]		1730	42

Continued by falling EC50, values first:

Emax at 30 µM [%]	EC50 [nM]	Emax (%)* (% ACh maximum at 30 μM) [%]	SMILES
83	1920		COc1cc(C)c(-c2cnc3c(c2)CN(c2nn4c(=O)cc(C)nc4c(C)c2C)CC3)cn1 [Compound 1-198, 7-(3-(6-methoxy-4-methylpyridin-3-yl)-7,8-dihydro-1,6-naphthyridin-6(5H)-yl)-2,8,9-trimethyl-4H-pyrimido[1,2-b]pyridazin-4-one]
53	837		Cc1cc(=O)n2nc(N3CCc4ncc(NCc5csc(C)n5)cc4C3)c(C)c(C)c2n1 [Compound 2-50, 2,8,9-trimethyl-7-(3-(((2-methylthiazol-4-yl)methyl)amino)-7,8-dihydro-1,6-naphthyridin-6(5H)-yl)-4H-pyrimido[1,2-b]pyridazin-4-one]
62	563		Cc1cc2nccn2cc1-c1cnc2c(c1)CN(c1nn3c(=O)ccnc3c(C)c1C)CC2 [Compound 1-296, 8,9-dimethyl-7-(3-(7-methylimidazo[1,2-a]pyridin-6-yl)-7,8-dihydro-1,6-naphthyridin-6(5H)-yl)-4H-pyrimido[1,2-b]pyridazin-4-one]
79	437		Cc1cc2nccc(=O)n2nc1N1CCc2ncc(Nc3cccc(F)n3)cc2C1 [Compound 2-107, 7-(3-((6-fluoropyridin-2-yl)amino)-7,8-dihydro-1,6-naphthyridin-6(5H)-yl)-8-methyl-4H-pyrimido[1,2-b]pyridazin-4-one]
93	332		Cc1cc2nccc(=O)n2nc1N1CCc2ncc(NCC3CC3)cc2C1 [Compound 2-89, 7-(3-((cyclopropylmethyl)amino)-7,8-dihydro-1,6-naphthyridin-6(5H)-yl)-8-methyl-4H-pyrimido[1,2-b]pyridazin-4-one]
92	274		COc1cncc(-c2cnc3c(c2)CN(c2nn4c(=O)cc(C)nc4cc2C)CC3)c1 [Compound 1-70, 7-(3-(5-methoxypyridin-3-yl)-7,8-dihydro-1,6-naphthyridin-6(5H)-yl)-2,8-dimethyl-4H-pyrimido[1,2-b]pyridazin-4-one]
90	138		Cc1cc2nccc(=O)n2nc1N1CCc2ncc(-c3scnc3C)cc2C1 [Compound 1-395, 8-methyl-7-(3-(4-methylthiazol-5-yl)-7,8-dihydro-1,6-naphthyridin-6(5H)-yl)-4H-pyrimido[1,2-b]pyridazin-4-one]
106	94		Cc1nc2c(C)c(C)c(N3CCc4ncc(C(F)(F)F)cc4C3)nn2c(=O)c1F [Compound 1-18, 3-fluoro-2,8,9-trimethyl-7-(3-(trifluoromethyl)-7,8-dihydro-1,6-naphthyridin-6(5H)-yl)-4H-pyrimido[1,2-b]pyridazin-4-one]
